This passage reports IC50 results from patent US12421252B2, “Spiro (isobenzofuranazetidine) compounds for the treatment of autoimmune disease” (Hoffmann-La Roche Inc., priority 2020, dated 2025).

This experiment concerns the target T1, human TLR8 (Homo sapiens, UniProt Q9NR97).
T1 sequence (Q9NR97 27-1041): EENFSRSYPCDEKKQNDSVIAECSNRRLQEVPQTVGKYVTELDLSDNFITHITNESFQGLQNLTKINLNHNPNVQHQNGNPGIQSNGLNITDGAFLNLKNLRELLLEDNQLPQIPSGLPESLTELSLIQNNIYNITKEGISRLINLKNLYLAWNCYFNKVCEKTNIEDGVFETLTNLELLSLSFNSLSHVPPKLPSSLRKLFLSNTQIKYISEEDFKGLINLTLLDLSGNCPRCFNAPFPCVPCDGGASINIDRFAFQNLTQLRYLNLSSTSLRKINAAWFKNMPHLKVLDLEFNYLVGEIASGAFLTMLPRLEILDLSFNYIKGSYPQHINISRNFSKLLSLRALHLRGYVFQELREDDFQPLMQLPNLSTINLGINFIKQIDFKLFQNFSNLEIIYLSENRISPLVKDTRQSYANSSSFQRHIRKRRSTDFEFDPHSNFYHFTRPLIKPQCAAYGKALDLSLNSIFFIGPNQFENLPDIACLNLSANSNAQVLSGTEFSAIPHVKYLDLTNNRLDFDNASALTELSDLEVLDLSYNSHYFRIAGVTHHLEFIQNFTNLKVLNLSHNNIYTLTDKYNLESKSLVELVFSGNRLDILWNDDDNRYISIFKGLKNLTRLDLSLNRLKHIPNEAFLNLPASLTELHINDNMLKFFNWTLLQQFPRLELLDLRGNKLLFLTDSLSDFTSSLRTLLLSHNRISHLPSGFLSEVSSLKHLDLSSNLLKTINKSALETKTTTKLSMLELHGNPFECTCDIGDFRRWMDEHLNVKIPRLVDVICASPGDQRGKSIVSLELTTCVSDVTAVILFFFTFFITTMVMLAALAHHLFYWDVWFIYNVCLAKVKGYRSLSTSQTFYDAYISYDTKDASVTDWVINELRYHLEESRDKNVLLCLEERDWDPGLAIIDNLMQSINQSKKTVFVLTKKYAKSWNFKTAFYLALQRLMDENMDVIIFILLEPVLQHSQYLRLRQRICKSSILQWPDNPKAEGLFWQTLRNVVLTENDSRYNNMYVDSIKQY
Kind of experiment: HEK293-Blue-hTLR-8 cells assay. In kind it is cell-based. As to conditions: HEK293-Blue-hTLR8 cells, R848 stimulation, 20 hrs, SEAP reporter; read-out: HEK/hTLR8 IC50. The source says:
HEK293-Blue-hTLR-8 cells assay:
A stable HEK293-Blue-hTLR-8 cell line was purchased from InvivoGen (Cat. #: hkb-htlr8, San Diego, California, USA). These cells were originally designed for studying the stimulation of human TLR8 by monitoring the activation of NF-κB. A SEAP (secreted embryonic alkaline phosphatase) reporter gene was placed under the control of the IFN-β minimal promoter fused to five NF-κB and AP-1-binding sites. The SEAP was induced by activating NF-κB and AP-1 via stimulating HEK-Blue hTLR8 cells with TLR8 ligands. Therefore the reporter expression was declined by TLR8 antagonist under the stimulation of a ligand, such as R848, for incubation of 20 hrs. The cell culture supernatant SEAP reporter activity was determined using QUANTI-Blue™kit (Cat. #: rep-qb1, Invivogen, San Diego, Ca, USA) at a wavelength of 640 nm, a detection medium that turns purple or blue in the presence of alkaline phosphatase.
HEK293-Blue-hTLR8 cells were incubated at a density of 250,000˜450,000 cells/mL in a volume of 170 μL in a 96-well plate in Dulbecco's Modified Eagle's medium (DMEM) containing 4.5 g/L glucose, 50 U/mL penicillin, […], […], 2 mM L-glutamine, 10% (v/v) heat-inactivated fetal bovine serum with addition of 20 μL test compound in a serial dilution in the presence of final DMSO at 1% and 10 μL of 60 uM R848 in above DMEM, perform incubation under 37° C. in a CO2 incubator for 20 hrs. Then 20 μL of the supernatant from each well was incubated with 180 μL Quanti-blue substrate solution at 37° C. for 2 hrs and the absorbance was read at 620-655 nm using a spectrophotometer. The signaling pathway that TLR8 activation leads to downstream NF-κB activation has been widely accepted, and therefore similar reporter assay was modified for evaluating TLR8 antagonist.

`[2H]c1ccc2c(N3C[C@H](CN4CC5(C4)OCc4cc(N6C[C@H]7NCCO[C@@H]7C6)ncc45)O[C@H](C)C3)ccc(C#N)c2n1` [Example 28, 5-[(2S,6R)-2-[[6-[(4aR,7aR)-3,4,4a,5,7,7a-hexahydro-2H-pyrrolo[3,4-b][1,4]oxazin-6-yl]spiro[1H-furo[3,4-c]pyridine-3,3′-azetidine]-1′-yl]methyl]-6-methyl-morpholin-4-yl]-2-deuterio-quinoline-8-carbonitrile]: the IC50 was determined as 25 nM.

For the molecule `C[C@@H]1CN(c2ccc(C#N)n3nccc23)C[C@H](CN2CC3(C2)OCc2cc(N4CC5(CNCCO5)C4)ccc23)O1` [Example 7, 4-[(2R,6S)-2-methyl-6-[[6-(5-oxa-2,8-diazaspiro[3.5]nonan-2-yl)spiro[1H-isobenzofuran-3,3′-azetidine]-1′-yl]methyl]morpholin-4-yl]pyrazolo[1,5-a]pyridine-7-carbonitrile], the IC50 is 58 nM.

On to `C[C@@H]1CN(c2cc(=O)n(C)c3ncccc23)C[C@H](CN2CC3(C2)OCc2cc(N4CC(N)C4)ccc23)O1` [Example 13, 4-[(2S,6R)-2-[[6-(3-aminoazetidin-1-yl)spiro[1H-isobenzofuran-3,3′-azetidine]-1′-yl]methyl]-6-methyl-morpholin-4-yl]-1-methyl-1,8-naphthyridin-2-one], for which the IC50 was determined as 409 nM.

In the case of `C[C@@H]1CN(c2ccc(C#N)n3ncc(F)c23)C[C@H](CN2CC3(C2)OCc2cc(N4CCNCC4)ccc23)O1` [Example 6, 3-fluoro-4-[(2R,6S)-2-methyl-6-[(6-piperazin-1-ylspiro[1H-isobenzofuran-3,3′-azetidine]-1′-yl)methyl]morpholin-4-yl]pyrazolo[1,5-a]pyridine-7-carbonitrile], the IC50 came to 24 nM.

Turning to `[2H]c1ccc2c(N3C[C@H](CN4CC5(C4)OCc4cc(N6C[C@@H](N)[C@H](OC)C6)cnc45)O[C@H](C)C3)ccc(C#N)c2n1` [Example 31, 5-[(2S,6R)-2-[[3-[(3R,4R)-3-amino-4-methoxy-pyrrolidin-1-yl]spiro[5H-furo[3,4-b]pyridine-7,3′-azetidine]-1′-yl]methyl]-6-methyl-morpholin-4-yl]-2-deuterio-quinoline-8-carbonitrile], the IC50 worked out at 30 nM.

With `C[C@@H]1CN(c2ccc(C#N)n3ncc(F)c23)C[C@H](CN2CC3(C2)OCc2cc(N4CC[C@](C)(N)C4)ccc23)O1` [Example 5, 4-[(2S,6R)-2-[[6-[(3S)-3-amino-3-methyl-pyrrolidin-1-yl]spiro[1H-isobenzofuran-3,3′-azetidine]-1′-yl]methyl]-6-methyl-morpholin-4-yl]-3-fluoro-pyrazolo[1,5-a]pyridine-7-carbonitrile], the IC50 was 22 nM.

On to `C[C@@H]1CN(c2ccc(C#N)n3ncc(F)c23)C[C@H](CN2CC3(C2)OCc2cc(N4CC5(CN(C)C5)C4)ccc23)O1` [Example 2, 3-fluoro-4-[(2R,6S)-2-methyl-6-[[6-(6-methyl-2,6-diazaspiro[3.3]heptan-2-yl)spiro[1H-isobenzofuran-3,3′-azetidine]-1′-yl]methyl]morpholin-4-yl]pyrazolo[1,5-a]pyridine-7-carbonitrile], for which the IC50 came out at 25 nM.

For `[2H]c1ccc2c(N3C[C@H](CN4CC5(C4)OCc4cc(N6C[C@@H](N)[C@H](OC)C6)ccc45)O[C@H](C)C3)ccc(C#N)c2n1` [Example 16, 5-[(2S,6R)-2-[[6-[(3R,4R)-3-amino-4-methoxy-pyrrolidin-1-yl]spiro[1H-isobenzofuran-3,3′-azetidine]-1′-yl]methyl]-6-methyl-morpholin-4-yl]-2-deuterio-quinoline-8-carbonitrile], the IC50 was 13 nM.

In the case of `C[C@@H]1CN(c2ccc(C#N)n3ncc(F)c23)C[C@H](CN2CC3(C2)OCc2cc(N[C@H]4CNC[C@H]4F)ccc23)O1` [Example 3, 3-fluoro-4-[(2S,6R)-2-[[6-[[(3S,4R)-4-fluoropyrrolidin-3-yl]amino]spiro[1H-isobenzofuran-3,3′-azetidine]-1′-yl]methyl]-6-methyl-morpholin-4-yl]pyrazolo[1,5-a]pyridine-7-carbonitrile], the IC50 came out at 51 nM.

In the case of `C[C@@H]1CN(c2ccc(C#N)n3ncc(F)c23)C[C@H](CN2CC3(C2)OCc2cc(N4CC5(CNCCO5)C4)ccc23)O1` [Example 4, 3-fluoro-4-[(2R,6S)-2-methyl-6-[[6-(5-oxa-2,8-diazaspiro[3.5]nonan-2-yl)spiro[1H-isobenzofuran-3,3′-azetidine]-1′-yl]methyl]morpholin-4-yl]pyrazolo[1,5-a]pyridine-7-carbonitrile], the IC50 amounted to 35 nM.

With `C[C@@H]1CN(c2ccc(C#N)n3nccc23)C[C@H](CN2CC3(C2)OCc2cc(N4CC(N)C4)ccc23)O1` [Example 19, 4-[(2S,6R)-2-[[6-(3-aminoazetidin-1-yl)spiro[1H-isobenzofuran-3,3′-azetidine]-1′-yl]methyl]-6-methyl-morpholin-4-yl]pyrazolo[1,5-a]pyridine-7-carbonitrile], the IC50 came to 99 nM.

`C[C@@H]1CN(c2ccc(C#N)n3nccc23)C[C@H](CN2CC3(C2)OCc2cc(N4CC(C)(N)C4)ncc23)O1` [Example 25, 4-[(2S,6R)-2-[[6-(3-amino-3-methyl-azetidin-1-yl)spiro[1H-furo[3,4-c]pyridine-3,3′-azetidine]-1′-yl]methyl]-6-methyl-morpholin-4-yl]pyrazolo[1,5-a]pyridine-7-carbonitrile]: the IC50 was 120 nM.

With `C[C@@H]1CN(c2ccc(C#N)n3ncc(F)c23)C[C@H](CN2CC3(C2)OCc2cc(N4CC(C)(N)C4)ccc23)O1` [Example 1, 4-[(2S,6R)-2-[[6-(3-amino-3-methyl-azetidin-1-yl)spiro[1H-isobenzofuran-3,3′-azetidine]-1′-yl]methyl]-6-methyl-morpholin-4-yl]-3-fluoro-pyrazolo[1,5-a]pyridine-7-carbonitrile], the IC50 was found to be 82 nM.

As to `C[C@@H]1CN(c2ccc(C#N)n3ncc(F)c23)C[C@H](CN2CC3(C2)OCc2cc(N4CC(N)C4)ccc23)O1` [Example 9, 4-[(2S,6R)-2-[[6-(3-aminoazetidin-1-yl)spiro[1H-isobenzofuran-3,3′-azetidine]-1′-yl]methyl]-6-methyl-morpholin-4-yl]-3-fluoro-pyrazolo[1,5-a]pyridine-7-carbonitrile], the IC50 was 45 nM.

Regarding `C[C@@H]1CN(c2ccc(C#N)n3nccc23)C[C@H](CN2CC3(C2)OCc2cc(N4CC(C)(N)C4)cnc23)O1` [Example 26, 4-[(2S,6R)-2-[[3-(3-amino-3-methyl-azetidin-1-yl)spiro[5H-furo[3,4-b]pyridine-7,3′-azetidine]-1′-yl]methyl]-6-methyl-morpholin-4-yl]pyrazolo[1,5-a]pyridine-7-carbonitrile], the IC50 turned out to be 234 nM.

Consider `[2H]c1ccc2c(N3C[C@H](CN4CC5(C4)OCc4cc(N6CC(N)C6)cnc45)O[C@H](C)C3)ccc(C#N)c2n1` [Example 20, 5-[(2S,6R)-2-[[3-(3-aminoazetidin-1-yl)spiro[5H-furo[3,4-b]pyridine-7,3′-azetidine]-1′-yl]methyl]-6-methyl-morpholin-4-yl]-2-deuterio-quinoline-8-carbonitrile], for which the IC50 stood at 30 nM.
